Three compounds from patent US20180282260A1, “1-AMINOCYCLOPROPANE-1-CARBOXYLIC ACID POLYMORPHS” (Valent BioSciences LLC, priority 2017, published 2018) can be followed below.

One data set concerns cotton cotyledons. Briefly: Cotton cotyledon bioefficacy assay (ethylene production by gas chromatography). The conditions noted are these: for Ethylene production in cotton cotyledons, average: Average of trials, 500 ppm ACC, 48 hours after application; for Ethylene production in cotton cotyledons: 500 ppm ACC sprayed on 10-day old cotyledons, removed 48 hours after application, incubated 4 to 7 hours. The class given is in vivo. The procedure: The ACC anhydrate from Chem-Impex International, Inc., an ACC anhydrate prepared by Inogent Laboratories of India and the ACC trihydrate of the present invention were each dissolved with water to 500 ppm w!w of ACC and applied separately to individual sets of 10-day old cotton cotyledons by a hand sprayer in 4 separate trials. 48 hours after application the cotyledons were removed and incubated in sealed vials for 4 to 7 hours. Following incubation, the cotyledons were measured for ethylene gas production by gas chromatography.

The nature of data set [1]: Crystal form stability under high humidity. Type of data set: physicochemical.

Take `NC1(C(=O)O)CC1` [Chem-Impex Anhydrate, 1-aminocyclopropane-1-carboxylic acid anhydrate]: in the data set on cotton cotyledons, the “Ethylene production in cotton cotyledons, average” value (from here on “Ethylene production … average”) was 25.66 nL C2H4/g/hr. Also, the “Ethylene production in cotton cotyledons” value in the data set on cotton cotyledons (Trial 1) amounted to 28.14 nL C2H4/g/hr; in the data set with cotton cotyledons (Trial 2) it was 23.18 nL C2H4/g/hr.

With `NC1(C(=O)O)CC1` [Inogent Anhydrate], in the data set with cotton cotyledons, the “Ethylene production … average” value came out at 20.07 nL C2H4/g/hr. The “Ethylene production in cotton cotyledons” value with cotton cotyledons (Trial 1) is 25.00 nL C2H4/g/hr; in the data set on cotton cotyledons (Trial 2), 20.33 nL C2H4/g/hr; with cotton cotyledons (Trial 3), 17.53 nL C2H4/g/hr; with cotton cotyledons (Trial 4) it was 17.43 nL C2H4/g/hr.

For the compound `NC1(C(=O)O)CC1` [Trihydrate, 1-aminocyclopropane-1-carboxylic acid trihydrate], the “Ethylene production … average” value with cotton cotyledons (trihydrate) amounted to 22.71 nL C2H4/g/hr. Besides, the “Ethylene production in cotton cotyledons” value in the data set with cotton cotyledons (Trial 1, trihydrate) turned out to be 15.06 nL C2H4/g/hr; in the data set with cotton cotyledons (Trial 2, trihydrate) it was 22.04 nL C2H4/g/hr; in the data set on cotton cotyledons (Trial 3, trihydrate), 36.30 nL C2H4/g/hr; in the data set with cotton cotyledons (Trial 4, trihydrate), 17.46 nL C2H4/g/hr. Further, in data set [1], the “Stability of crystal form” value is “most stable crystal form of ACC under high humidity”.
